# Reference: patent US6808936B1, “Methods and compositions for use in the diagnosis and treatment of chronic immune disease” (R.E.D. Laboratories, N.V., priority 2000, dated 2004)
# Tests used:
# Experiment in all cases: Caspase activity in extracts of U937 cell line induced to apoptosis with camptothecin
# Type in all cases: cell-based, human
# caspase 9 = conditions: U937 Cell Line Induced (G3), camptothecin 10 micrograms per mL; n 4; uninduced 45 ± 6
# Description: (§1) Caspase levels in PBMC extracts were measured using a commercially available kit (BioSource International) based on a calorimetric assay. Briefly, PBMC extracts were diluted to a final concentration of 1 microgram of protein per 50 microliters of diluent (provided with the kit). This sample (1 microgram) was then added to 55 microliters of assay buffer containing a substrate specific for the particular caspase to be measured (if caspase activity is present, the substrate is cleaved, liberating color). Cell extracts to be used as positive and negative controls for caspase activity levels were prepared using the method of […] et al. (1999), Oncogene 14:1007-1012). Briefly, the human monocytic leukemia cell line U937 was induced to begin apoptosis by treatment with camptothecin at a concentration of 10 micrograms per mL of 2×10^6 cells. Uninduced cells were used as the negative control. Also included as a negative control were normal human monocytes, elutriated and frozen as live cells. All cell extracts and protein determinations were made as described above. The reaction mixture (1 microgram protein sample+caspase substrate) was incubated at 37 degrees C. for 20-24 hours. The resultant color was measured using a spectrophotometer at a wavelength of 405 nm. Background absorbance (i.e., from a reagent blank without protein) was subtracted from all sample values. All assays were performed in triplicate, […]
# caspase 6 = conditions: U937 Cell Line Induced (G3), camptothecin 10 micrograms per mL; n 4; uninduced 162 ± 20
# Description: as §1
# caspase 8 = conditions: U937 Cell Line Induced (G3), camptothecin 10 micrograms per mL; n 4; uninduced 91 ± 11
# Description: as §1
# caspase 2 = conditions: U937 Cell Line Induced (G3), camptothecin 10 micrograms per mL; n 4; uninduced 50 ± 32
# Description: as §1
# caspase 3 = system: caspase 3
# Description: as §1
structure (smiles),measurement,setting,value
CC[C@@]1(O)C(=O)OCc2c1cc1n(c2=O)Cc2cc3ccccc3nc2-1 [camptothecin],C9 caspase activity,caspase 9,90 ± 29
same,C6 caspase activity,caspase 6,277 ± 57
same,C8 caspase activity,caspase 8,207 ± 52
same,C2 caspase activity,caspase 2,251 ± 39
same,Caspase 3 Activity,"caspase 3; Table 2: U937 Cell Line Induced (G3), camptothecin, mean ± s.d. of triplicates, uninduced 82 ± 9",336 ± 6 mAU
same,C3 caspase activity,"caspase 3; U937 Cell Line Induced (G3), camptothecin 10 micrograms per mL, n 4, uninduced 73 ± 26",304 ± 50
